Measurements as given in patent US20160194631A1, “Methods for Modulation of Autophagy Through the Modulation of Autophagy-Inhibiting Gene Products” (Harvard Medical School, priority 2009, published 2016).
Entries after “also recorded” stand apart in the source; their conditions may differ.

Columns and labels:
Type in all cases: cell-based, human
[1] = test system: H4 cells stably expressing LC3-GFP; experiment: LC3-GFP autophagosome translocation image-based assay; conditions: for autophagy as measured by LC3-GFP translocation: H4 LC3-GFP cells grown in serum-free medium, cytokine 24 hours; for autophagy (autophagosome associated LC3-GFP): H4 LC3-GFP cells in defined medium
Method: (§1) H4 human neuroblastoma cells were cultured under standard tissue culture conditions in DMEM media supplemented with 10% normal calf serum, penicillin/streptomycin, sodium pyruvate (Invitrogen) and, where appropriate, 0.4-1.2 mg/mL G418. LC3-GFP and FYVE-dsRed H4 cells were generated as described in Zhang et al., PNAS, 102, 15545-15550 (2007). To create a stable line expressing Lamp1, H4 cells were transfected with Lamp1-RFP plasmid using TransIT LT1 reagent (Minis), followed by selection with 0.4 mg/mL G418. Bcl-2 expressing cell lines were created by infecting LC3-GFP and FYVE-dsRed H4 cells with pBabe-Bcl-2 retrovirus, followed by selection with […] puromycin.
For the cytokine assays, cells were seeded at 0.5×10^5 in full medium in either 24-well (western) or 96-well (LC3-GFP quantification) plates. After 24 hours, cells were washed in PBS and serum-free OptiMEM medium (Invitrogen) was added along with the indicated growth factors and/or cytokines for an additional 24 hours. Growth factors and cytokines used include human TNFα (Cell Sciences), human LIF (GeneScript Corporation), human FGF2 (ProSpec), human IGF1 (ProSpec), human SDF1 (Prospec) and human CLCF1 (R&D Systems). To induce starvation, cells were cultured for 24 hours in full media, washed in PBS and cultured for additional 4 hours in HBSS bedia (Invitrogen). […]
For high-throughput screens, cells were imaged on an automated CellWoRx microscope (Applied Precision) at 10× magnification using 2 wavelengths (350 nm to detect Hoechst, 488 nm to detect LC3-GFP) for the primary screens and 3 wavelengths (350 nm, 488 nm and 550 nm to detect Lamp1-RFP or FYVE-dsRed) for the secondary screens. All images were quantified using VHSscan and VHSview image analysis software (Cellomics). Total cell number, total LC3-GFP intensity/cell as well as number, area and intensity of LC3-GFP positive autophagosomes/cell were scored. All dead and mitotic cells were excluded from analysis based on nuclear intensity. The final autophagy score for each well was obtained by multiplying the total autophagosome intensity/cell by the number of autophagosomes/cell and dividing by the average cell intensity. This formula was empirically determined to accurately measure LC3-GFP translocation from cytosol into autophagosomes as reflected by consistently significant z-scores and p-values when using siRNAs against mTOR and Atg5 controls. FYVE-dsRed and Lamp1-RFP scores were obtained in a manner similar to LC3-GFP scores, except that for Lamp1-RFP, which measures total accumulation of the reporter rather than its translocation, division by the average cell intensity was omitted.
For low-throughput follow-up analysis, cells were grown on glass cover slips. Following fixation in 4% paraformaldehyde and counterstaining with Hoechst, cover slips were mounted in 50% glycerol, 0.1% n-propyl gallate/PBS. Cells were imaged at 40× magnification on a Nikon Eclipse E800 microscope. Cell numbers, cell area and intensity, as well as autophagosome number and intensity, were quantified using Metamorph software. Autophagy was scored as number of autophagosomes per cell.
Human neuroblastoma H4 cells stably expressing the LC3-GFP reporter were used to identify genes involved in the regulation of autophagy in mammals. […] When autophagy is induced in these cells, LC3-GFP is recruited from the cytosol and can be visualized in a punctate pattern corresponding to autophagosomes. In order to validate the system, cells were transfected with siRNA against either the essential autophagy mediator ATG5 or against mTOR, a suppressor of starvation-induced autophagy. Following 72 hours of incubation under normal nutritional conditions, […].

type III PI3 kinase = experiment: FYVE-dsRed reporter assay of PtdIns3P levels
Method: as §1
For secondary screens, a siRNA library was used in which the 4 siRNAs of each siRNA pool were separated into individual wells. […]
For high-throughput screens, cells were imaged on an automated CellWoRx microscope (Applied Precision) at 10× magnification using 2 wavelengths (350 nm to detect Hoechst, 488 nm to detect LC3-GFP) for the primary screens and 3 wavelengths (350 nm, 488 nm and 550 nm to detect Lamp1-RFP or FYVE-dsRed) for the secondary screens. All images were quantified using VHSscan and VHSview image analysis software (Cellomics). Total cell number, total LC3-GFP intensity/cell as well as number, area and intensity of LC3-GFP positive autophagosomes/cell were scored. […]

H4 cells [2] = experiment: Western blot of autophagy markers (LC3, p62); conditions: for autophagy by western blot (LC3II accumulation, LC3 II/tubulin): serum-free medium, 100 ng/mL IGF1, 50 ng/mL FGF2, LIF or CLCF1, 10 μg/mL E64d, with or without 50 nM rapamycin, H4, HEK293, HeLa, MCF7
Method: For the cytokine assays, cells were seeded at 0.5×10^5 in full medium in either 24-well (western) or 96-well (LC3-GFP quantification) plates. After 24 hours, cells were washed in PBS and serum-free OptiMEM medium (Invitrogen) was added along with the indicated growth factors and/or cytokines for an additional 24 hours. Growth factors and cytokines used include human TNFα (Cell Sciences), human LIF (GeneScript Corporation), human FGF2 (ProSpec), human IGF1 (ProSpec), human SDF1 (Prospec) and human CLCF1 (R&D Systems). To induce starvation, cells were cultured for 24 hours in full media, washed in PBS and cultured for additional 4 hours in HBSS bedia (Invitrogen).
For western blot analysis, lysosomal protease inhibitor E64d (Sigma) was added at a concentration of 10 μg/mL for the last 8-12 hours before cell lysis.
(§2) For western blots, cells were lysed in Lammeli sample buffer, resolved on a 10-12% SDS-PAGE gel and transferred to PVDF membrane. The following antibodies were used: LC3 (Novus), p62 (Pharmigen), phospho-S6K (Thr389), phospho-Akt (Ser473), phospho-Stat3 (Tyr705), RelA, Sod1, phospho-PTEN (Ser380/Thr382/383) (all Cell Signaling), Bcl-2 (Santa Cruz), all at 1:1000, phospho-S6 (Ser235/236) (Cell Signaling) and phospho-ERK 1/2 (Sigma) at 1:2000, tubulin (Sigma) at 1:5000. Where indicated, blots were quantified using NIH ImageJ64 software.

H4 cells [3] = experiment: Western blot of signalling protein levels and phosphorylation; conditions: for activating phosphorylation of Stat3: 50 ng/mL LIF or CLCF1
Excerpt: as §2

[4] = 100 ng/mL IGF1 plus Akt inhibitor VIII

Molecule: Cn1cnc(=N)c2[nH]cnc21 [3MA, reference compound]
- effect on induction of autophagy in response to Aβ ([1]; H4 GFP-LC3 cells, 3MA): attenuate induction of autophagy
- effect on Aβ-induced accumulation of PtdIns3P (type III PI3 kinase; 3MA 10 mM, 8 hours prior to fixation): suppressed

Molecule: O=c1[nH]c2ccccc2n1C1CCN(Cc2ccc(-c3nc4cc5[nH]cnc5cc4nc3-c3ccccc3)cc2)CC1 [Akt inhibitor VIII, reference compound]
- effect on inhibition of autophagy by IGF1 (H4 cells [2]; [4]): prevented inhibition of autophagy
- phosphorylation of Foxo3a and S6 kinase (H4 cells [3]; [4]): attenuated phosphorylation

Molecule: CC(=O)N[C@@H](CS)C(=O)O [NAC, N-acetyl-L-cysteine, reference compound]
- effect on induction of autophagy caused by knock-down of Sod1 ([1]; H4 LC3-GFP cells, 2.5 mM NAC): significantly attenuated
- effect on elevated induction of autophagy in response to starvation ([1]; RelA deficient H4 cells, 2.5 mM NAC): attenuated
- effect on Aβ-induced accumulation of PtdIns3P (type III PI3 kinase; with antioxidant NAC): suppressed

Molecule: N#CC(=C(/N)Sc1ccccc1N)/C(C#N)=C(/N)Sc1ccccc1N [UO126, reference compound]
- effect on inhibition of autophagy by FGF2 (LC3 western) (H4 cells [2]; H4 cells, serum-free media, 50 ng/mL FGF2, 10 μg/mL E64d, UO126 pre-treatment): attenuated inhibition of autophagy; also recorded: prevented

Molecule: FGF2: human FGF2 (ProSpec); fibroblast growth factor 2 (basic)
- autophagy by western blot (LC3II accumulation, LC3 II/tubulin) (H4 cells [2]): suppress autophagy in the absence and presence of rapamycin
- autophagy as measured by LC3-GFP translocation [1]: significant down-regulation of autophagy
- level of phospho-ERK1/2 and phospho-RSK (H4 cells [3]; H4 cells, serum-free media, 50 ng/mL FGF2): increased level

Molecule: IGF1: human IGF1 (ProSpec); insulin-like growth factor 1
- autophagy by western blot (LC3II accumulation, LC3 II/tubulin) (H4 cells [2]): suppress autophagy in the absence and presence of rapamycin
- autophagy as measured by LC3-GFP translocation [1]: significant down-regulation of autophagy
- phosphorylation of Akt and Foxo3a (H4 cells [3]; IGF-1 treatment, absence and presence of rapamycin): increased

Molecule: LIF: human LIF (GeneScript Corporation); leukemia inhibitory factor
- autophagy by western blot (LC3II accumulation, LC3 II/tubulin) (H4 cells [2]): suppress autophagy in the absence and presence of rapamycin
- autophagy as measured by LC3-GFP translocation [1]: significant down-regulation of autophagy
- activating phosphorylation of Stat3 (H4 cells [3]): increased activating phosphorylation of Stat3

Molecule: SDF1: human SDF1 (Prospec); chemokine SDF1 (CXCL12)
- autophagy as measured by LC3-GFP translocation [1]: significant down-regulation of autophagy

Molecule: TNFα
- p62 level by western blot (H4 cells [2]; low levels of TNFα (5 ng/ml), nutrient deprivation): significant accumulation of p62
- autophagy (autophagosome associated LC3-GFP) ([1]; higher doses of TNFα): up-regulation of autophagy
- autophagy (autophagosome associated LC3-GFP) ([1]; low doses of TNFα): down-regulation of autophagy

B1: CLCF1: human CLCF1 (R&D Systems); cardiotrophin-like cytokine factor 1 (protein, UniProt Q9UBD9 28-225, looked up)
Cardiotrophin-like cytokine …: LNRTGDPGPGPSIQKTYDLTRYLEHQLRSLAGTYLNYLGPPFNEPDFNPPRLGAETLPRATVDLEVWRSLNDKLRLTQNYEAYSHLLCYLRGLNRQAATAELRRSLAHFCTSLQGLLGSIAGVMAALGYPLPQPLPGTEPTWTPGPAHSDFLQKMDDFWLLKELQTWLWRSAKDFNRLKKKMQPPAAAVTLHLGAHGF
- autophagy by western blot (LC3II accumulation, LC3 II/tubulin) (H4 cells [2]): suppress autophagy in the absence and presence of rapamycin
- autophagy as measured by LC3-GFP translocation [1]: significant down-regulation of autophagy
- activating phosphorylation of Stat3 (H4 cells [3]): increased activating phosphorylation of Stat3
